Measured values reported in patent publication US20220110985A1, “NUTRITIONAL COMPOSITION COMPRISING 2'FUCOSYLLACTOSE AND 3'GALACTOSYLLACTOSE” (N.V. Nutricia, priority 2019, published 2022).

Experiments:
Format in all cases: cell-based
[1] = system: human PBMC, CD3/CD28 stimulated; assay: Cytokine production of CD3/CD28 stimulated PBMC; settings: for CCL17 levels, in words / levels of IL-4 and IL-13 as compared to control, in words: CD3/CD28 stimulated PBMC, pre-incubation; for Relative level of CCL17, Mean (s.e.) / Relative level of IL-4, Mean (s.e.) / Relative level of IL-13, Mean (s.e.): CD3/CD28 stimulated, 24 h pre-incubation, 0.2 wt % 2′-FL, 0.1 wt % 3′-GL, blanc = 1, observed
Protocol: Isolation of PBMC from healthy donors: Human peripheral blood mononuclear cells (PBMC) from healthy donors were isolated from buffy coats (Sanquin, Amsterdam, the Netherlands). PBMC were obtained by centrifugation using Leucosep tubes (Greiner Bio-One). PBMC were collected and washed in PBS (Gibco, Thermo Fisher Technologies)+2% heat-inactivated FCS (Invitrogen), followed by hypotonic lysis of erythrocytes with sterile lysis buffer (0.15 M NH4Cl, 0.01 M KHCO3 and 0.1 mM EDTA, pH of 7.4 at 4° C., all from Merck, Darmstadt, Germany). After lysis, the PBMC were resuspended in freezing medium (70% RPMI 1640 medium (Gibco, Thermo Fisher Technologies) supplemented with 10% heat-inactivated FCS and 100 U/ml penicillin-streptomycin, 20% heat-inactivated FCS and 10% DMSO (Sigma)) and cryopreserved.
PBMC activation model: PBMC (0.2·10^6 cell/well) were cultured in 96-well flat bottom plates (Corning). For 24 hours the cells were pre-incubated with 2′-FL (Jennewein), 3′-GL (0-0.3% w/v; Carbosynth) or sodium butyrate (0.2 mM; Sigma Aldrich) and combinations thereof. Subsequently, the cells were CD3/CD28-activated (Pelicluster CD3 and Pelicluster CD28, Sanquin) for an additional 24 hours. After incubation, IFNγ was measured by ELISA in the supernatants (see below). To determine cell activity after stimulation, PBMC were incubated with cell proliferation reagent WST-1 (10 μl; Roche) and/or 10% Triton (5 μl; negative control). After 3 hours, absorbance was measured at OD450 nm and OD650 nm and cell activity was calculated according to manufacturer's instructions.
Cytokine production of PBMC: PBMC were incubated with indicated reagents. After incubation, the supernatants were collected and IL2, IL6, IL10, IL13, IL21, TNFα, IFNγ, MIF, CCL1, CCL13, CCL17, CCL20, CCL22 and CXCL8-11 levels were measured by conducting a validated multiplex immunoassay based on Luminex technology (xMAP, Luminex Austin Tex. USA). Acquisition was conducted with the Biorad FlexMAP3D (Biorad laboratories, Hercules USA) in combination with xPONENT software version 4.2 (Luminex). Data was analyzed by 5-parametric curve fitting using Bio-Plex Manager software, version 6.1.1 (Biorad).
After PBMC stimulation, cell culture supernatants were collected, after which cytokine responses were measured in order to test immune responsiveness of the cells. The levels of cytokines measured in stimulated conditions were corrected for the (low) levels of the cytokines measured in non-stimulated conditions. In addition, since each donor is reacting in its own efficiency onto the T cell stimulus, we calculated the individual index of cytokine response by dividing the intervention induced response by the basal stimulated response.
Subsequently, in order to test the direct effect of specific compounds on PBMC activity, the cells were activated with CD3/CD28 for 24 hours after a pre-incubated for 24 h with either 2′-FL, 3′-GL and combinations thereof. In addition, since each donor is reacting in its own efficiency onto the T cell stimulus, the individual index of cytokine response was calculated by dividing the intervention induced response by the basal stimulated response (the blanc is set at 1). In this way the intervention within 10 different donors has been studied.

human PBMC, unstimulated = assay: Cytokine production of unstimulated PBMC (IL10, CCL20); settings: for CCL20 level as compared to blanc control, in words: unstimulated PBMC; for Relative CCL 20 mean (s.e.): 0.1 w/v % 3′-GL
Text: Isolation of PBMC from healthy donors: Human peripheral blood mononuclear cells (PBMC) from healthy donors were isolated from buffy coats (Sanquin, Amsterdam, the Netherlands). PBMC were obtained by centrifugation using Leucosep tubes (Greiner Bio-One). […] After lysis, the PBMC were resuspended in freezing medium (70% RPMI 1640 medium (Gibco, Thermo Fisher Technologies) supplemented with 10% heat-inactivated FCS and 100 U/ml penicillin-streptomycin, 20% heat-inactivated FCS and 10% DMSO (Sigma)) and cryopreserved. PBMC activation model: PBMC (0.2·10^6 cell/well) were cultured in 96-well flat bottom plates (Corning). For 24 hours the cells were pre-incubated with 2'-FL (Jennewein), 3'-GL (0-0.3% w/v; […] Sigma Aldrich) and combinations thereof. Subsequently, the cells were CD3/CD28-activated (Pelicluster CD3 and Pelicluster CD28, Sanquin) for an additional 24 hours. After incubation, IFNγ was measured by ELISA in the supernatants (see below). […] Roche) and/or 10% Triton (5 μl; negative control). […] Cytokine production of PBMC: PBMC were incubated with indicated reagents. After incubation, the supernatants were collected and IL2, IL6, IL10, IL13, IL21, TNFα, IFNγ, MIF, CCL1, CCL13, CCL17, CCL20, CCL22 and CXCL8-11 levels were measured by conducting a validated multiplex immunoassay based on Luminex technology (xMAP, Luminex Austin Tex. USA). Acquisition was conducted with the Biorad […] (Biorad laboratories, Hercules USA) in combination with xPONENT software version 4.2 (Luminex). Data was analyzed by 5-parametric curve fitting using Bio-Plex Manager software, version 6.1.1 (Biorad). After PBMC stimulation, cell culture supernatants were collected, after which cytokine responses were measured in order to test immune responsiveness of the cells. The levels of cytokines measured in stimulated conditions were corrected for the (low) levels of the cytokines measured in non-stimulated conditions. In addition, since each donor is reacting in its own efficiency onto the T cell stimulus, we calculated the individual index of cytokine response by dividing the intervention induced response by the basal stimulated response.

Bifidobacteria = assay: Fecal slurry fermentation: total Bifidobacteria
Protocol: Anaerobic fermentation of fecal slurry samples was tested in a BioLector Pro microfluidics mini multifermentor. Faecal slurry samples were collected from breast fed infants and from formula fed infants. These faecal slurry samples were processed by adding 0.6 grams feces in 40 ml Baby Reichardt V.6 medium+mucus+Ammonium sulfate+lactate and acetate. The resulting solutions were inserted to the BioLector Pro microfluidics mini multifermentor. The test legs were supplemented with 3-GL, 2′-FL, 3′-GL+2′-FL, and GOS/FOS. The control leg was supplemented with sterile water.
A 32 well plate that can handle low pH was used. The wells of this plate were filled with fecal solution. 2.5% (w/v) of the different sterile carbohydrate solutions (3′-GL, 2′-FL, 2′-FL/3′-GL (2.0+0.5%). and Glucose were added to the fecal slurry according to a template.
The experiment was started, and pH setpoint was either 5.5 (facial inoculum from infant 1, vaginally born, breast fed) or pH 6.0 (Inoculum from infant 2, vaginally born, breast fed) with continuous pH regulation, and temperature 37° C., humidity 85%, OD control. At 4, 8 and 24 hours a sample is taken for CFU determination on TOS-propionate MUP agar (total Bifidobacteria), XLD agar for Salmonella enteriditis S29, and Simons citrate inositol agar for Klebsiella pneumonia K2 and for SCFA, D- and L Lactate and ammonia analysis. Fecal pellet was used for 16s DNA sequencing.

[2] = unstimulated, 0.2% w/v 2′-FL, 0.2 mM butyrate, blanc = 1, observed

Compound	CCL17 levels, in words [1]	levels of IL-4 and IL-13 as compared to control, in words [1]	Relative level of CCL17, Mean (s.e.) [1]	Relative level of IL-4, Mean (s.e.) [1]	Relative level of IL-13, Mean (s.e.) [1]	CCL20 level as compared to blanc control, in words (human PBMC, unstimulated)	Relative CCL 20 mean (s.e.) (human PBMC, unstimulated; [2])	Growth of bifidobacteria (Bifidobacteria)	effect on bifidobacteria (Bifidobacteria; inoculum of baby 2)	IL10 level as compared to blanc control, in words (human PBMC, unstimulated; 0.2% 2′-FL, 0.2 mM butyrate)	Relative IL10 level, mean (se) (human PBMC, unstimulated; [2])
Gal (beta 1-3)-Gal (beta 1-4)-Glc [3′-GL]	no significant effect	a decrease was detected	0.6212 (0.0531)	0.5825 (0.0413)	0.5472 (0.0723)	did not have a statistically significant effect	1.164 (0.212)	Growth of bifidobacteria was observed	highest		
C[C@@H]1O[C@@H](O[C@H]2[C@H](O[C@H]3[C@H](O)[C@@H](O)C(O)O[C@@H]3CO)O[C@H](CO)[C@H](O)[C@@H]2O)[C@@H](O)[C@H](O)[C@@H]1O (stereo partly drawn) [2′-FL, α-L-Fuc-(1→2)-β-D-Gal-(1→4)-D-Glc]	no significant effect	had no effect	1.061 (0.117)	0.9887 (0.0517)	1.039 (0.080)	increased level	2.586 (0.281)	Growth of bifidobacteria was observed		significantly (p<0.05) increased level	3.361 (1.867)
